From article PMC5429621 (Scientific Reports, 2017)

Legend:
[1] = target: T1, hP2X7-2Nβ/P2X1 chimera 81–94 (Homo sapiens, UniProt Q99572, F88W/H85P/I21V/K81P/K82G/M24R/N16P/N25R/Q22R/R20V/S23N/S86Q/T19I/T90V/T94V/V84G/Y26L); assay: two-electrode voltage clamp, Xenopus oocytes; format: cell-based; details: 81–94 chimera
T1 construct: expressed in transfected cells; host or cells: Xenopus laevis oocytes (cRNA injected)
T1 sequence (Q99572 1-595 N16P/T19I/R20V/I21V/Q22R/S23N/M24R/N25R/Y26L/K81P/K82G/V84G/H85P/S86Q/F88W/T90V/T94V): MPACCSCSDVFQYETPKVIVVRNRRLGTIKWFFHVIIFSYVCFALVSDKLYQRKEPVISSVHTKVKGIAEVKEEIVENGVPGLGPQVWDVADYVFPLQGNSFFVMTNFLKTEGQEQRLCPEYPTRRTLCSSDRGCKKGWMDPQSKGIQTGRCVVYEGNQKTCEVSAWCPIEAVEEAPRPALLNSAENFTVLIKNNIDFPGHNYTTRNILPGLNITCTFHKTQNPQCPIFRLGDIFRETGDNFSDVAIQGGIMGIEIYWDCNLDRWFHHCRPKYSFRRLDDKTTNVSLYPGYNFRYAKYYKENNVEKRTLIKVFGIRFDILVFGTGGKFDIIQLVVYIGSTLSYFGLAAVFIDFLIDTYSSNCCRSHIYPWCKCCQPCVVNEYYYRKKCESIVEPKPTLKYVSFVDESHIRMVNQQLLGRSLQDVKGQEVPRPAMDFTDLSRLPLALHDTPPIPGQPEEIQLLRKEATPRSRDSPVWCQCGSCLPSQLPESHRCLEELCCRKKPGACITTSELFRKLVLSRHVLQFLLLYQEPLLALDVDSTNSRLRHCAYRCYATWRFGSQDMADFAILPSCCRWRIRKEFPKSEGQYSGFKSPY
Excerpt: (§1) The hP2X1R was a gift from Dr Lin-Hua Jiang (University of Leeds, UK) and the hP2X1R cDNA has been described previously. Chimeras were generated by megaprimer-mediated domain swapping. In addition to chimeras, point mutations, deletions and insertions were made using the QuikChange (Stratagene) or Q5 (New England Bioscience) mutagenesis kits. The production of the correct mutations and absence of coding errors was verified by DNA sequencing (Automated ABI Sequencing Service, University of Leicester, UK).
(§2) P2XR constructs were transcribed to produce sense-strand cRNA (mMessage mMachine, Ambion, Austin, TX). Manually defoliculated stage V Xenopus laevis oocytes were injected with 50 nl (50 ng) of cRNA using an Inject + Matic microinjector (J.A. Gaby, InjectMatic, Geneva, Switzerland) and stored at 16 °C in ND96 buffer (in mM, NaCl 96, KCl 2, CaCl2 1.8, MgCl2 1, sodium pyruvate 5, HEPES 5 (pH 7.6) supplemented with 50 µg/ml gentamycin and 50 µg/ml tetracycline). For electrophysiological recordings (3–7 days post-injection) oocytes were bathed in divalent free ND96 buffer (in mM, NaCl 96, KCl 2, sodium pyruvate 5, HEPES 5 and 0.1 flufenamic acid, pH 7.6).
ATP (sodium salt, Sigma) was applied via a U-tube perfusion system for 3 s at 3–5 minute intervals to allow reproducible responses to be recorded. […] To standardize for any change in ATP sensitivity at mutant receptors antagonists were co-applied with an EC90 concentration of ATP.
Concentration response curves were normalized to the maximal response and fitted with the Hill equation (variable slope) with GraphPad Prism 6 (Graphpad software, San Diego, CA). […] Individual concentration response curves were generated for individual experiments and statistical analysis was carried out on the data generated. In the figures the inhibition curves are fitted to the mean normalized data. Any significant differences were calculated by one-way analysis of variance, followed by Bonferroni’s test (using GraphPad Prism 6). Data are shown as mean ± SEM.

hP2X1R = target: T2, hP2X1R (Homo sapiens, UniProt P51575); assay: two-electrode voltage clamp, Xenopus oocytes; format: cell-based
T2 construct: expressed in transfected cells; host or cells: Xenopus laevis oocytes (cRNA injected)
T2 sequence (P51575 1-399): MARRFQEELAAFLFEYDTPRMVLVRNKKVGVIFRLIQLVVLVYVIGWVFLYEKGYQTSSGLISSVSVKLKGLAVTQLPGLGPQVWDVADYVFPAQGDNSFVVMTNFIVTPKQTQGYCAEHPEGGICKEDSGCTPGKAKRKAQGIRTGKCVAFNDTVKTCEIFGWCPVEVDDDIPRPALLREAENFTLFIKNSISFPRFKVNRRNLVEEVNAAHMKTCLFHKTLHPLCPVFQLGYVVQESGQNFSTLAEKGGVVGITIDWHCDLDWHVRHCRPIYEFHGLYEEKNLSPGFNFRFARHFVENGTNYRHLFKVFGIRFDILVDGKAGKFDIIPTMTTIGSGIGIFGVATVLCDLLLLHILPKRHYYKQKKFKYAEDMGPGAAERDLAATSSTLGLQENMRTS
Excerpt: as §1, §2
Two-electrode voltage clamp recordings were carried out using a GeneClamp 500B amplifier with a Digidata 1322 A analog to digital convertor and pCLAMP 8.2 acquisition software (Molecular Devices, Menolo Park, CA) at a holding potential of −60 mV. ATP (sodium salt, Sigma) was applied via a U-tube perfusion system for 3 s at 3–5 minute intervals to allow reproducible responses to be recorded. For determination of antagonist sensitivity AZ10606120 (Tocris) was bath perfused as well as co-applied with ATP through the U-tube. […]
Concentration response curves were normalized to the maximal response and fitted with the Hill equation (variable slope) with GraphPad Prism 6 (Graphpad software, San Diego, CA). […] Any significant differences were calculated by one-way analysis of variance, followed by Bonferroni’s test (using GraphPad Prism 6). […]

| Structure (SMILES) | Peak amplitude ([1]; maximal ATP) [μA] | Peak amplitude (hP2X1R; P2X1, maximal ATP) [μA] | peak current to ATP, % of the control response ([1]; in the presence of 3 µM AZ10606120) [%] | AZ10606120 pIC50 (hP2X1R; P2X1, EC90 ATP) | effect of AZ10606120 at P2X1R (hP2X1R; at 10 μM) |
| --- | --- | --- | --- | --- | --- |
| Nc1ncnc2c1ncn2[C@@H]1O[C@H](COP(=O)(O)OP(=O)(O)OP(=O)(O)O)[C@@H](O)[C@H]1O [ATP] | 0.76 ± 0.13 | 7.90 ± 1.08 | – | – | – |
| Cl.Cl.O=C(CC12CC3CC(CC(C3)C1)C2)Nc1cccc2nc(NCCNCCO)ccc12 [AZ10606120, N-[2-[[2-[(2-Hydroxyethyl)amino]ethyl]amino]-5-quinolinyl]-2-tricyclo[3.3.1.13,7]dec-1-ylacetamide dihydrochloride] | – | – | 53.6 ± 2.6 | insensitive | ineffective |
